# In patent publication US10899741B2, “3,4-bipyridyl pyrazole derivative, and preparation method therefor and medical application thereof” (Jiangsu Hengrui Medicine Co., Ltd., priority 2016, dated 2021):
# Legend:
# [1] = target: TGFβRI kinase ALK5 (Homo sapiens (Human), UniProt P36897); test: Inhibition of TGFβRI kinase ALK5 activity (ADP-Glo kit); format: biochemical; conditions: ATP 50 μM, 27° C. 2.5 hours
# Experimental: The inhibition effect of TGFβRI kinase activity in vitro was determined by the following method.
# The inhibition effect of the compounds of the present invention on TGFβRI kinase ALK5 activity was determined by the following experimental method:
# TGFβRI kinase assay kit (V4093, Promega) was used to assay enzyme activity. 2 μl of enzyme solution (the final concentration of enzyme in the reaction system was 2 ng/μL) formulated with reaction buffer (40 mM Tris pH 7.5, 20 mM MgCl2, 0.1 mg/ml BSA), 1 μl of a 3-fold gradient dilution of the compounds dissolved in 5% DMSO, and 2 μl of a mixed solution of ATP and TGFβRI substrate peptide (the final concentration of ATP was 50 μM, and the final concentration of substrate was 0.2 μg/μL) were added successively to a 384-well plate (4514, Corning). After reaction at 27° C. for 2.5 hours, 5 μl of ADP-Glo solution in the kit was added to each well, then the plate was placed at 27° C. for 40 minutes. 10 μl of kinase assay reagent was then added to each well, then the plate was placed at 27° C. for 30 minutes. The chemiluminescence signal values were measured with a Victor 3 (PerkinElmer) multi-function microplate reader. The IC50 values of the compounds for enzyme inhibition were calculated using Graphpad prism software based on each concentration of the compound and the corresponding signal value thereof.
# [2] = target: recombinant human VEGFR2 (Homo sapiens (Human), UniProt P35968); test: Inhibition of VEGFR2 kinase activity (Z'-LYTE kit); format: biochemical; conditions: ATP 50 μM, 25° C. 2 hours
# recombinant human VEGFR2, sequence (P35968 20-1356): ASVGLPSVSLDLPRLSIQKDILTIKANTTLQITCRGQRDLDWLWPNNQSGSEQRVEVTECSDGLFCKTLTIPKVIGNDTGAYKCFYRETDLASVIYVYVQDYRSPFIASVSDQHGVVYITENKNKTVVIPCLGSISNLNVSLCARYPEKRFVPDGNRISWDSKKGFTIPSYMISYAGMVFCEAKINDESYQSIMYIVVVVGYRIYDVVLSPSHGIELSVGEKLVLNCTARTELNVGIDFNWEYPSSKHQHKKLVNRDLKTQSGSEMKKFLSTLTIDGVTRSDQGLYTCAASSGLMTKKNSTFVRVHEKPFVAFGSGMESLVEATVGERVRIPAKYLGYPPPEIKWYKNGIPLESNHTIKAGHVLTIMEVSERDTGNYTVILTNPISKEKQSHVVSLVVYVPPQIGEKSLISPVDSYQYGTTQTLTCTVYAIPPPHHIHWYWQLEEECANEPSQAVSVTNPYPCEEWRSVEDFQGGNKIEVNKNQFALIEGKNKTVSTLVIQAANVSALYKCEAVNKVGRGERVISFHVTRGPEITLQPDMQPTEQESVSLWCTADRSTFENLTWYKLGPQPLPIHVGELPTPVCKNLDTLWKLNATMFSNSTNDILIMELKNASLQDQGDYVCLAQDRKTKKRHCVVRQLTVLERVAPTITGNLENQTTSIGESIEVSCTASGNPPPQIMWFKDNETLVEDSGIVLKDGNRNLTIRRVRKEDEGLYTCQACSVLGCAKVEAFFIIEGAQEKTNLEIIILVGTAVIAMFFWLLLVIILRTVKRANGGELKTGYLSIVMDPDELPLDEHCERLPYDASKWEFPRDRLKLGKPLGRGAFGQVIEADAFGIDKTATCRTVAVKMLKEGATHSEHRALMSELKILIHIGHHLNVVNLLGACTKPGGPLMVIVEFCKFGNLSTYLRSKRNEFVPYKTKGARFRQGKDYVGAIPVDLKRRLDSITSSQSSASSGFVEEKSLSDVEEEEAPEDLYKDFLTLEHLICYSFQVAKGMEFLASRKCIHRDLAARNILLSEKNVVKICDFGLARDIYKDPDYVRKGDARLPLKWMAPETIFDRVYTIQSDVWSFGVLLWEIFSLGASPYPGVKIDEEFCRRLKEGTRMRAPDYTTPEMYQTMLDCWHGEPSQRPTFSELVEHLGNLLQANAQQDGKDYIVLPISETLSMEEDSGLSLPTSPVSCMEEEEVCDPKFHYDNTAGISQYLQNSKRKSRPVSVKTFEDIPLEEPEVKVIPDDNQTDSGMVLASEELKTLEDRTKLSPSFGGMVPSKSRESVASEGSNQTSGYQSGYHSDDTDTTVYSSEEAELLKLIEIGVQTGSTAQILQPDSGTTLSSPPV
# Experimental: The inhibition effect of VEGFR2 kinase activity in vitro was determined by the following method.
# The inhibition effect of the compounds of the present invention on VEGFR2 kinase activity was determined by the following experimental method:
# Z'-LYTEC® Kinase Assay Kit—Tyrosine 1 Peptide (PV3190, Invitrogen) was used to assay enzyme activity. 5 μl of recombinant human VEGFR2 enzyme (PV3660, Invitrogen) and VEGFR2 substrate polypeptide (in the reaction system, the final concentration of enzyme was 0.14 ng/μL, and the final concentration of substrate was 2 μM) formulated with reaction buffer (50 mM HEPES pH7.5, 10 mM MgCl2, 1 mM EGTA, 0.05% BRIJ-35), 2.5 μl of a 2-fold gradient dilution of the compounds dissolved in 5% DMSO, and 2.5 μL of ATP solution (the final concentration of ATP was 50 μM) were added successively to a 384-well plate (4513, Corning). After reaction at 25° C. for 2 hours, 5 μL of detection reagent was added to each well. After the plate was placed at 25° C. for 1 hour, the fluorescence signal values at emission wavelengths of 445 nm and 520 nm were measured with a NOVOstar (BMG) multi-function microplate reader. The IC50 values of the compounds for enzyme inhibition were calculated using Graphpad prism software based on each concentration of the compound and the corresponding signal value thereof.
# [3] = test system: Smad signaling pathway of TGFβRI; test: Inhibition of Smad signaling pathway of TGFβRI (3TP-lux luciferase reporter in HepG2 cells); format: cell-based; conditions: HepG2, 3TP-lux plasmid, 18 hours; for IC50: Homo sapiens
# Experimental: The inhibition effect of the compounds of the present invention on Smad signaling pathway of TGFβRI was determined by the following in vitro test.
# The inhibition effect of the compounds of the present invention on Smad signaling pathway of TGFβRI was determined by the following experimental method:
# On a 96-well plate, 100 μL of HepG2 cell (TCHu 72, Cell Bank of Typical Culture Collection Committee of Chinese Academy of Sciences) was seeded on an EMEM medium containing 10% FBS (42360-099, Gibco) in each well. The seeding density is 2.5×10^4 cells/well. The cells were incubated overnight at 37° C., in 5% CO2. Each well was replaced with fresh EMEM medium containing 10% FBS. 0.1 μg of 3TP-lux plasmid (11767, Biovector Science Lab, Inc.) was transfected in each well. The cells were further incubated for 24 hours at 37° C., in 5% CO2. Each well was replaced with 90 μL of EMEM medium containing 0.5% FBS, then the cells were starved for 6 hours. The compounds were formulated as a 20 mM stock solution, which was diluted in gradient to a 400× concentration with 100% DMSO, and further 40-fold diluted with EMEM containing 0.5% FBS. The cell culture plate was taken out, then 10 μl of diluted compound or control (0.25% DMSO) was added to each well respectively. The plate was shaken gently, then incubated for 18 hours in an incubator at 37° C., in 5% CO2. Finally, 100 μl of detection reagent ONE-Glo™ Luciferase Assay (E6110, Promega) was added to each well, and the plate was placed in dark at room temperature for 10 minutes. The chemiluminescence signal values were measured with a Victor 3.0 (PerkinElmer). The IC50 values of the compounds were calculated using Graphpad Prism software based on each concentration of the compound and the corresponding signal value thereof.
# [4] = Pharmacokinetics assay in rats after intragastrical administration; format: in vivo; conditions: both sexes, Sprague-Dawley, rat, plasma, po, SD rats; for Vd/F / AUC / CL/F / half-life / MRT: 2.0 mg/kg; for Vd/F: read-out: Apparent distribution volume Vz/F; for AUC: read-out: Area under curve AUC; for CL/F: read-out: Clearance CLz/F; for half-life: read-out: Half-life T1/2 (converted); for MRT: read-out: Residence time MRT
# Experimental: Rats were used as test animals. The drug concentration in plasma at different time points was determined by LC/MS/MS method after intragastrical administration of the compounds of Examples 1 and 2 to rats. The pharmacokinetic behavior of the compounds of the present invention was studied and evaluated in rats.
# Eight healthy adult Sprague-Dawley (SD) rats (half male and half female) were purchased from SINO-BRITISH SIPPR/BK LAB. ANIMAL LTD., CO, with Certificate No.: SCXK (Shanghai) 2008-0016, and equally divided into 2 groups (4 rats per group).
# A certain amount of the test drug was weighed, and added with 5% by volume of DMSO, 5% by volume of Tween 80, and 90% by volume of physiological saline to prepare a 0.2 mg/mL colorless, clear and transparent solution.
# After an overnight fast, SD rats were administered intragastrically the test drugs at an administration dosage of 2.0 mg/kg and an administration volume of 10.0 mL/kg.
# The rats were intragastrically administered the compounds of Examples 1 and 2. 0.2 mL of blood was taken from the orbital sinus before administration and at 0.5, 1.0, 2.0, 4.0, 6.0, 8.0, 11.0 and 24.0 hours after administration. The samples were stored in heparinized tubes, and centrifuged for 10 minutes at 4° C. at 3,500 rpm to separate the blood plasma. The plasma samples were stored at −20° C. The rats were fed 2 hours after administration.
# The content of the test compounds in the plasma of rats after intragastrical administration of the test drugs at different concentrations was determined: 25 μL of rat plasma at each time after administration was taken, added with 30 μL (100 ng/mL) of the internal standard solution of camptothecin and 225 μL of acetonitrile, vortex-mixed for 5 minutes, and centrifuged for 10 minutes (3600 rpm). 5.0 μL of the supernatant was taken from the plasma samples for LC/MS/MS analysis.
# TGFβRI kinase ALK5, sequence (P36897 34-503): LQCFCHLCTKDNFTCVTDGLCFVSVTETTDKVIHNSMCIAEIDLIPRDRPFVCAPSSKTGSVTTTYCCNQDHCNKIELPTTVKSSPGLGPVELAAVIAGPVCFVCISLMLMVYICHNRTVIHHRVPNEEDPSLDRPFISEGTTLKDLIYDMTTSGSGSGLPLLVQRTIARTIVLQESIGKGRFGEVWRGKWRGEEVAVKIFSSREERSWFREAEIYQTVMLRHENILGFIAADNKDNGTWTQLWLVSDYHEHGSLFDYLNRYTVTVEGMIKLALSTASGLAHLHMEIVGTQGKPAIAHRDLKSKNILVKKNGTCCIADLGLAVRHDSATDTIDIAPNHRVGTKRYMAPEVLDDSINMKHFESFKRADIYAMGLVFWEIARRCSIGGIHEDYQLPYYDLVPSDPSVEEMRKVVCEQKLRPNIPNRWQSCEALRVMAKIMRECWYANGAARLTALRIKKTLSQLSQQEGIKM
SMILES,IC50 [1],IC50 [2],Maximum inhibition rate (%) [3],IC50 [3],"Cmax ([4]; 2 mg/kg, heading: Plasma concentration Cmax)",Vd/F [4],AUC [4],CL/F [4],half-life [4],MRT [4]
"Cc1cccc(-c2nn(C3CCC3)cc2-c2ccnc(-c3ccc(S(C)(=O)=O)cc3)c2)n1 [Example 1, 4-(1-Cyclobutyl-3-(6-methylpyridin-2-yl)-1H-pyrazol-4-yl)-2-(4-(methylsulfonyl)phenyl)pyridine]",208 nM,2500 nM,101%,77 nM,1830 ± 941 ng/mL,1.2 ± 0.437 L/kg,3270 ± 1470 ng·h/mL,11.9 ± 5.2 mL/min/kg,1.23 ± 0.33 h,1.72 ± 0.21 h
"Cc1cccc(-c2nn(C3CC3)cc2-c2ccnc(-c3ccc(S(C)(=O)=O)cc3)c2)n1 [Example 2, 4-(1-Cyclopropyl-3-(6-methylpyridin-2-yl)-1H-pyrazol-4-yl)-2-(4-(methylsulfonyl)phenyl)pyridine]",270 nM,4200 nM,100%,174 nM,,0.872 ± 0.536 L/kg,8060 ± 5290 ng·h/mL,5.33 ± 2.65 mL/min/kg,1.99 ± 0.95 h,3.06 ± 0.87 h
